Holding throughout (experiment): growth of human tumour cells (NCI), 48 h
Assay [1] concerns ACHN renal.
Assay [2] relates to COLO 205 colon.
Assay [3] concerns KM12 colon.
Assay [4] has as its system MOLT-4 leukemia.
Assay [5] relates to NCI-H23 lung.
The test system of assay [6] is NCI/ADR-RES ovarian.
For assay [7], the system named is SF-539 CNS.
Assay [8] relates to T-47D breast.
The subject of assay [9] is TK-10 renal.
For assay [10], the system named is HL-60(TB) leukemia.

SMILES strings stand for the structures.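 Tested at 5 concentrations; 48 h exposure; 96-well plates; endpoints linearly interpolated, else capped at highest concentration. At the TGI there is no net growth.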

For `Cc1ccc(N=NC(=Nc2ccc(Cl)cc2)c2ccc(N(CCC#N)CCC#N)cc2)cc1`, the TGI in assay [1] was more than 100 µM; in assay [2] it was 55.6 µM; in assay [3], more than 100 µM; in [4] it was more than 100 µM; in [5], more than 100 µM; in assay [6] it was more than 100 µM. The TGI is more than 100 µM in assay [7], more than 100 µM in [8] and 95.8 µM in [9].

`COc1ccc(-c2cc(-c3ccc(O)cc3O)c(C#N)c(=O)[nH]2)cc1`: the TGI in assay [1] was more than 100 µM; in [2], 31.6 µM; in assay [10], 65.4 µM; in [3], more than 100 µM; in assay [4] it was 55.1 µM; in assay [5], 71.1 µM. In addition, the TGI in [6] is 46.2 µM; in [7] it was 34.7 µM; in assay [8], more than 100 µM; in assay [9] it was more than 100 µM.

In the case of `Cc1ccc(C(=O)Cn2c(C(=O)/C=C/c3cccs3)nc3ccccc32)cc1`, the TGI in [1], in [2], in assay [10], in assay [3], in assay [5] and in assay [6] was more than 100 µM throughout. The TGI in assay [7], in assay [8] and in [9] was more than 100 µM in each case.

Regarding `Nc1ccc(Oc2ccc(C3(c4ccc(Oc5ccc(N)cc5)cc4)C4CC5CC(C4)CC3C5)cc2)cc1`, the TGI in assay [1] was more than 62.9 µM; in assay [2], more than 100 µM; in [10], 44.3 µM; in [3], 17.7 µM; in [4], more than 100 µM; in assay [5], more than 48.3 µM. Also, the TGI was more than 100 µM in [6], more than 66.2 µM in assay [7] and more than 92.4 µM in assay [9].

As for `Cc1c2c(OCC(O)CN3CCN(c4ccccc4)CC3)nn(C)c(=O)c2c(C)n1-c1ccccc1` (stereo not given), the TGI in assay [1] was 49.6 µM; in [2], 39.6 µM; in assay [10] it was 49.1 µM; in [3] it was more than 100 µM; in assay [4] it was 88.9 µM; in assay [5], 46.4 µM. The TGI in assay [6] was 63.8 µM; in [7] it was 33.6 µM; in [8] it was 71.8 µM; in assay [9], more than 100 µM.

On to `CC(=O)O[C@@H]1C(=O)N(c2ccccc2)[C@@H]1c1cc2ccccc2c2ccccc12`, for which the TGI in assay [1] is more than 100 µM; in [2], 32.3 µM; in [10], 58.2 µM; in [3] it was more than 100 µM; in [4], 56 µM; in assay [5], more than 100 µM. The TGI in assay [6] is more than 100 µM; in assay [7], 96.9 µM; in assay [8], 85.7 µM; in assay [9] it was more than 100 µM.

`CCOC(=O)C(Cc1cn(C(C)=O)c2ccccc12)P(=O)(OCC)OCC` (stereo not given): the TGI in assay [1], in assay [2], in [4], in assay [5], in [6] and in [8] was more than 100 µM in each case. The molecule further came in with a TGI in assay [9] of more than 100 µM.

With `C/C(=N\NC(=S)NCCCCNC(=S)N/N=C(\C)c1ccccn1)c1ccccc1`, the TGI was more than 24 µM in assay [1]; more than 100 µM in assay [3]; more than 30.5 µM in assay [4]; 25.3 µM in [5]; 3.86 µM in assay [6]; 3.86 µM in assay [7]. The molecule also yielded a TGI in assay [9] of 40.6 µM.

Consider `COc1ccc(OC)c(C2CCc3c(cnc4nc(N)nc(N)c34)C2)c1` (stereo not given), for which the TGI in assay [1] is 17.2 µM; in assay [2], 47.3 µM; in [10] it was 25.9 µM; in [3], 26.4 µM; in [4] it was 22 µM; in [6], more than 100 µM. In addition, the values for the TGI in assay [7], in assay [8] and in [9] were 89.1 µM, 39.8 µM and 28.7 µM, respectively.

With `CCOC(=O)CCSc1nc2ccc(I)cc2c(=O)n1Cc1ccccc1`, the TGI in [1] is more than 83 µM; in [2], 26.9 µM; in assay [10] it was more than 73.7 µM; in assay [3] it was more than 100 µM; in assay [5], more than 64.4 µM; in [6] it was more than 60.3 µM. Also, the TGI in assay [7] was more than 100 µM; in [8], more than 100 µM; in assay [9], more than 88.2 µM.

With `N#CCCN(CCC#N)c1ccc(/C=C(\NC(=O)c2cc([N+](=O)[O-])ccc2Cl)C(=O)Nc2ccccc2)cc1`, the TGI in assay [1], in [2], in assay [3], in assay [4], in [5] and in assay [7] was more than 100 µM in each case. This molecule returned a TGI in assay [9] of more than 100 µM.

In the case of `C/C(=N\NC(=S)N(C)C)c1nc2ncccc2[nH]1`, the TGI in [1] stood at 14.7 µM; in assay [2] it was 23.9 µM; in assay [10] it was 1.32 µM; in assay [4], 9.86 µM; in [6], 12.6 µM; in assay [7], 5.11 µM. Also, the TGI in assay [8] is 14.7 µM; in [9], more than 100 µM.

`CC(C)CC(=O)NC(C(=O)NC(C(=O)NC(CC(C)C)C(O)CC(=O)NC(C)C(=O)NC(CC(C)C)C(O)CC(=O)O)C(C)C)C(C)C` (stereo not given): the TGI in assay [1], in [2], in [3], in [4], in assay [5] and in [6] was more than 100 µM throughout. Besides, the TGI in assay [7] and in [9] was more than 100 µM in each case.

On to `CCCn1cc2c(SC)nc(SC)nc2n1`, for which the TGI in assay [1], in assay [2], in assay [10], in assay [3], in [4] and in [5] was more than 100 µM throughout. Moreover, the TGI in assay [7] and in assay [9] was more than 100 µM in each case.
